Experimental data published in PubChem BioAssay (NCI).
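Each compound was tested at five concentrations against cells in 96-well plates for 48 hours. At the TGI there is no net growth.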

What was measured:
Test in all cases: NCI tumour cell line growth inhibition, 48 h
SF-295 CNS = tested on: SF-295 CNS
PC-3 prostate = tested on: PC-3 prostate
SW-620 colon = tested on: SW-620 colon
OVCAR-3 ovarian = tested on: OVCAR-3 ovarian
NCI/ADR-RES ovarian = tested on: NCI/ADR-RES ovarian
SNB-19 CNS = tested on: SNB-19 CNS
LOX IMVI melanoma = tested on: LOX IMVI melanoma
DU-145 prostate = tested on: DU-145 prostate
ACHN renal = tested on: ACHN renal
HOP-92 NSCLC = tested on: HOP-92 NSCLC
COLO 205 colon = tested on: COLO 205 colon
M14 melanoma = tested on: M14 melanoma
HCT-116 colon = tested on: HCT-116 colon
CCRF-CEM leukemia = tested on: CCRF-CEM leukemia
SN12C renal = tested on: SN12C renal
RPMI-8226 leukemia = tested on: RPMI-8226 leukemia
HCC-2998 colon = tested on: HCC-2998 colon
MDA-MB-231 breast = tested on: MDA-MB-231 breast
786-0 renal = tested on: 786-0 renal
K-562 leukemia = tested on: K-562 leukemia

Row | SMILES | TGI (SF-295 CNS) [µM] | TGI (PC-3 prostate) [µM] | TGI (SW-620 colon) [µM] | TGI (OVCAR-3 ovarian) [µM] | TGI (NCI/ADR-RES ovarian) [µM] | TGI (SNB-19 CNS) [µM] | TGI (LOX IMVI melanoma) [µM] | TGI (DU-145 prostate) [µM] | TGI (ACHN renal) [µM] | TGI (HOP-92 NSCLC) [µM] | TGI (COLO 205 colon) [µM] | TGI (M14 melanoma) [µM] | TGI (HCT-116 colon) [µM] | TGI (CCRF-CEM leukemia) [µM] | TGI (SN12C renal) [µM] | TGI (RPMI-8226 leukemia) [µM] | TGI (HCC-2998 colon) [µM] | TGI (MDA-MB-231 breast) [µM] | TGI (786-0 renal) [µM] | TGI (K-562 leukemia) [µM]
1 | COC(=O)/C=C/COCC1C2CCC(=O)C21 (stereo not given) | > 100 | > 100 | > 100 | > 100 | > 100 | > 100 | > 100 | > 100 | > 100 | > 100 | > 100 | > 100 | > 100 | > 100 | > 100 | > 100 | > 100 | > 100 | > 100 | > 100
2 | CC1(C)C2CC1C(/C=N\OCC(=O)O)=CC2=O (stereo not given) | > 100 | > 100 | > 100 | > 100 | > 100 | > 100 | > 100 | > 100 | > 100 | > 100 | > 100 | > 100 | > 100 | > 100 | > 100 | > 100 | > 100 | > 100 | > 100 | > 100
3 | CCOc1cc(NC(C)=O)ccc1C(=O)NN1C(=O)C(Cl)C1c1ccc(O)c(OC)c1 (stereo not given) | 39.1 | 28.3 | 60.1 | 38.5 | 57.4 | 29.5 | 7.79 | 29 | 30.3 | 32.3 | 35.1 | 28.1 | 37.7 | 25.8 | 31 | 40.5 | 32.2 | 26.9 | 26 | 25.1
4 | O=C(c1c(F)c(F)c(F)c(F)c1F)n1c(=O)[nH]c2ccccc21 | 30.6 | 21.8 | 16.1 | 24 | 58.1 | 28.2 | 14.9 | 29.6 | 29.7 | 11.4 | 25.7 | 22.1 | 12.2 | 18.8 | 28.3 | 25.1 | 11.6 | 26.8 | 47.4 | 14.9
5 | Nc1ccc2c(c1)N(C(=O)CCCC(=O)N1CC(CCl)c3ccc(N)cc31)CC2CCl (stereo not given) | > 50 | 16.4 | > 50 | > 50 | 42.7 | 11.3 | 11.3 | > 21 | > 41 | > 50 | 2.1 | 4.7 | > 50 | > 20.1 | 9.67 | > 10.2 | > 50 | 8.76 | > 29.7 | > 15.8
